In brackets after ≈: the same amount, converted by molar mass. Like-named read-outs stand apart in the source and are kept apart here.
Columns and labels:
Type in all cases: cell-based
[1] = system: Klebsiella aerogenes 1522E; experiment: minimal inhibiting concentration (MIC), Gram-negative bacteria
[2] = system: Diplococcus pneumoniae ATCC6301; experiment: minimal inhibiting concentration (MIC), Gram-positive bacteria; details: Streptococcus pneumoniae
[3] = system: Salmonella typhi Watson; experiment: minimal inhibiting concentration (MIC), Gram-negative bacteria; details: Salmonella enterica
[4] = system: Shigella sonnei ATCC11060; experiment: as above
[5] = system: Klebsiella pneumoniae ATCC 10031; experiment: as above; details: ATCC10031
[6] = system: Escherichia coli G; experiment: as above
[7] = system: Proteus mirabilis ATCC9921; experiment: as above
[8] = system: Streptococcus β-haemolyticus C203; experiment: minimal inhibiting concentration (MIC), Gram-positive bacteria
[9] = system: Escherichia coli 1507; experiment: minimal inhibiting concentration (MIC), Gram-negative bacteria
[10] = system: Staphylococcus aureus Smith; experiment: minimal inhibiting concentration (MIC), Gram-positive bacteria
[11] = system: Enterobacter aerogenes ATCC8308; experiment: minimal inhibiting concentration (MIC), Gram-negative bacteria; details: Klebsiella aerogenes
[12] = system: Diplococcus aureus 39/2; experiment: minimal inhibiting concentration (MIC), Gram-positive bacteria
[13] = system: Enterobacter cloacae 1321E; experiment: minimal inhibiting concentration (MIC), Gram-negative bacteria
[14] = system: staphylococci; experiment: activity against staphylococci compared with Cefazolin
Source text: (§1) The pharmaceutical or veterinary compositions containing the compounds of the invention may be prepared in a conventional way by employing the conventional carriers and/or diluents used for the other cephalosporins. Conventional carriers or diluents are, for example, water, gelatine, lactose, starches, magnesium stearate, talc, vegetable oils, cellulose and the like.

[15] = system: Gram-negative bacteria; experiment: activity against Gram-negative bacteria
Source text: The compounds of the invention may be administered, either to humans or to animals, in a variety of dosage forms, e.g., orally in the form of tablets, capsules, drops or syrups; rectally in the form of suppositories; parenterally, e.g. intravenously or intramuscolarly (as solutions or suspensions), with intravenous administration being preferred in emergency situation; by inhalation in the form of aerosols or solutions for nebulizers; intravaginally in the form, e.g. of bougies; or topically in the form of lotions, creams and ointments. The pharmaceutical or veterinary compositions containing the compounds of the invention may be prepared in a conventional way by employing the conventional carriers and/or diluents used for the other cephalosporins. Conventional carriers or diluents are, for example, water, gelatine, lactose, starches, magnesium stearate, talc, vegetable oils, cellulose and the like. Daily doses in the range of about 1 to about 100 mg per kg of body weight may be used, in various animal species, the exact dose depending on the age, weight and condition of the subject to be treated and on the frequency and route of administration. […]

[16] = system: Haemophylus influenzae; experiment: activity against Haemophylus influenzae in comparison with Cefazolin; details: 7 strains tested
Source text: as §1

[17] = system: streptococci (including diplococci); experiment: activity against streptococci (including diplococci) compared with Cefazolin
Source text: as §1

[18] = system: 60 strains of Gram-negative microorganisms comprising Klebsiella, Escherichia coli, Proteus mirabilis and Proteus vulgaris; experiment: activity on a series of 60 strains of Gram-negative microorganisms in comparison with Cefazolin
Source text: as §1

[19] = Escherichia coli G, read-out: MIC

| Structure (SMILES) | MIC [1] [µg/mL] | MIC [2] [µg/mL] | MIC [3] [µg/mL] | MIC [4] [µg/mL] | MIC [5] [µg/mL] | MIC ([6]; Escherichia coli) [µg/mL] | MIC [7] [µg/mL] | MIC [8] [µg/mL] | MIC [9] [µg/mL] | MIC [10] [µg/mL] | MIC [11] [µg/mL] | MIC [12] [µg/mL] | MIC [13] [µg/mL] | MIC [6, 19] [µg/mL] | times more active than Cefazolin [14] | times more active than Cefazolin [15] | times more active than Cefazolin [16] | times more active than Cefazolin [17] | activity in comparison with Cefazolin [18] |
| --- | --- | --- | --- | --- | --- | --- | --- | --- | --- | --- | --- | --- | --- | --- | --- | --- | --- | --- | --- |
| Cn1nnnc1SCC1=C(C(=O)O)N2C(=O)C(NC(=O)[C@H](O)c3ccccc3)[C@H]2SC1 (stereo partly drawn) [Cefamandole, 7-D-mandelamido-3-{[(1-methyl-1H-tetrazol-5-yl)-thio]-methyl}-3-cephem-4-carboxylic acid, reference compound] | 0.4 (≈ 0.865 µM) | 0.019 (≈ 0.0411 µM) | 0.6 (≈ 1.3 µM) | 2.35 (≈ 5.08 µM) | 0.15 (≈ 0.324 µM) | 2.35 (≈ 5.08 µM) | 1.6 (≈ 3.46 µM) | 0.019 (≈ 0.0411 µM) | 0.8 (≈ 1.73 µM) | 0.15 (≈ 0.324 µM) | 1.6 (≈ 3.46 µM) | 1.2 (≈ 2.59 µM) | 1.6 (≈ 3.46 µM) | – | – | – | – | – | – |
| Cc1nnc(SCC2=C(C(=O)O)N3C(=O)[C@@H](NC(=O)Cn4cnnn4)[C@H]3SC2)s1 [Cefazolin, 7-(1-(1H)-tetrazolylacetamido)-3-[2-(5-methyl-1,3,4-thiadiazolyl)-thiomethyl]-3-cephem-4-carboxylic acid, reference compound] | 1.1 (≈ 2.42 µM) | 0.05 (≈ 0.11 µM) | 1.6 (≈ 3.52 µM) | 1.6 (≈ 3.52 µM) | 0.8 (≈ 1.76 µM) | – | 6.2 (≈ 13.6 µM) | 0.05 (≈ 0.11 µM) | 1.6 (≈ 3.52 µM) | 0.05 (≈ 0.11 µM) | 1.2 (≈ 2.64 µM) | 0.6 (≈ 1.32 µM) | 3.1 (≈ 6.82 µM) | 1.6 (≈ 3.52 µM) | – | – | – | – | – |
| Cc1nnc(SCC2=C(C(=O)O)N3C(=O)C(NC(=O)CSCC#N)C3SC2)s1 (stereo not shown) [K 9227, 7-[(cyanomethyl-thio)-acetamido]-3-[2-(5-methyl-1,3,4-thiadiazolyl)-thiomethyl]-3-cephem-4-carboxylic acid, reference compound] | 1.6 (≈ 3.5 µM) | 0.4 (≈ 0.874 µM) | 0.8 (≈ 1.75 µM) | 1.6 (≈ 3.5 µM) | 0.4 (≈ 0.874 µM) | – | 12.5 (≈ 27.3 µM) | 0.025 (≈ 0.0546 µM) | 1.6 (≈ 3.5 µM) | 0.05 (≈ 0.109 µM) | 1.2 (≈ 2.62 µM) | 0.2 (≈ 0.437 µM) | 3.1 (≈ 6.77 µM) | 3.1 (≈ 6.77 µM) | – | – | – | – | – |
| Cn1nnnc1SCC1=C(C(=O)O)N2C(=O)C(NC(=O)CSCC#N)C2SC1 (stereo not shown) [K 10299, 7-[(cyanomethyl-thio)-acetamido]-3-[5-(1-methyl-1,2,3,4-tetrazolyl)-thiomethyl]-3-cephem-4-carboxylic acid, reference compound] | 0.8 (≈ 1.81 µM) | 0.2 (≈ 0.453 µM) | 0.2 (≈ 0.453 µM) | 1.6 (≈ 3.62 µM) | 0.2 (≈ 0.453 µM) | – | 6.2 (≈ 14 µM) | 0.037 (≈ 0.0838 µM) | 0.8 (≈ 1.81 µM) | 0.075 (≈ 0.17 µM) | 0.6 (≈ 1.36 µM) | 0.4 (≈ 0.906 µM) | 1.6 (≈ 3.62 µM) | 0.8 (≈ 1.81 µM) | – | – | – | – | – |
| Cn1nnnc1SCC1=C(C(=O)O)N2C(=O)C(NC(=O)CS/C=C/C(N)=O)C2SC1 (stereo not drawn) [K 11457, 7-[β-carboxamido-ethylene(trans)-thio-acetamido]-3-[(1-methyl-1,2,3,4-tetrazol-5-yl)-thiomethyl]-3-cephem-4-carboxylic acid] | 0.2 (≈ 0.424 µM) | 0.025 (≈ 0.053 µM) | 0.2 (≈ 0.424 µM) | 1.6 (≈ 3.39 µM) | 0.15 (≈ 0.318 µM) | – | 3.1 (≈ 6.57 µM) | 0.025 (≈ 0.053 µM) | 0.4 (≈ 0.848 µM) | 0.1 (≈ 0.212 µM) | 0.4 (≈ 0.848 µM) | 0.4 (≈ 0.848 µM) | 1.6 (≈ 3.39 µM) | 0.4 (≈ 0.848 µM) | – | – | – | – | – |
| Cn1nnnc1SCC1=C(C(=O)O)N2C(=O)C(NC(=O)CS/C=C\C(N)=O)C2SC1 (stereo not drawn) [K 13031, 7-[β-carboxamido-ethylene(cis)-thio-acetamido]-3-[(1-methyl-1,2,3,4-tetrazol-5-yl)-thiomethyl]-3-cephem-4-carboxylic acid] | 0.2 (≈ 0.424 µM) | 0.012 (≈ 0.0254 µM) | 0.2 (≈ 0.424 µM) | 0.3 (≈ 0.636 µM) | 0.2 (≈ 0.424 µM) | – | 0.8 (≈ 1.7 µM) | < 0.012 | 0.4 (≈ 0.848 µM) | 0.1 (≈ 0.212 µM) | 0.3 (≈ 0.636 µM) | 0.2 (≈ 0.424 µM) | 0.8 (≈ 1.7 µM) | 0.8 (≈ 1.7 µM) | – | – | – | – | – |
| Cn1nnnc1SCC1=C(C(=O)O)N2C(=O)C(NC(=O)CS/C=C\C#N)C2SC1 (stereo not drawn) [K 13101, 7-[β-cyano-ethylene(cis)-thio-acetamido]-3-[(1-methyl-1,2,3,4-tetrazol-5-yl)-thiomethyl]-3-cephem-4-carboxylic acid] | 0.1 (≈ 0.22 µM) | 0.012 (≈ 0.0265 µM) | 0.07 (≈ 0.154 µM) | 0.8 (≈ 1.76 µM) | 0.1 (≈ 0.22 µM) | – | 0.4 (≈ 0.882 µM) | 0.012 (≈ 0.0265 µM) | 0.1 (≈ 0.22 µM) | 0.025 (≈ 0.0551 µM) | 0.2 (≈ 0.441 µM) | 0.14 (≈ 0.309 µM) | 0.56 (≈ 1.23 µM) | 0.14 (≈ 0.309 µM) | about 2 times | about 9.6 times | about 6 times | about 4.2 times | always found to be more active than Cefazolin |
| N#C/C=C\SCC(=O)NC1C(=O)N2C(C(=O)O)=C(CSc3nncs3)CSC12 (stereo not drawn) [K 13107, 7-[β-cyano-ethylene(cis)-thio-acetamido]-3-[(1,3,4-thiadiazol-2-yl)-thiomethyl]-3-cephem-4-carboxylic acid] | 0.28 (≈ 0.615 µM) | < 0.006 | 0.2 (≈ 0.439 µM) | 1.6 (≈ 3.51 µM) | 0.2 (≈ 0.439 µM) | – | 0.4 (≈ 0.878 µM) | < 0.006 | 0.57 (≈ 1.25 µM) | 0.025 (≈ 0.0549 µM) | 0.4 (≈ 0.878 µM) | 0.14 (≈ 0.307 µM) | 1.6 (≈ 3.51 µM) | 0.57 (≈ 1.25 µM) | – | – | – | – | – |

— US4154830A, “Unsaturated derivatives of 7-acylamido-3-cephem-4-carboxylic acid” (Carlo Erba S.p.A., priority 1977, dated 1979)
